Assay results published in patent publication US20140248221A1, “COMPOSITIONS FOR ORAL USE AND METHODS FOR TREATING THE ORAL MUCOSA, LIPS, AND PERIORAL REGIONS” (JR CHEM, LLC, priority 2011, published 2014).

Test: zone of inhibition activity
Assay type: cell-based
Settings: compared with zn bacitracin

Cu-zn bacitrate
zone of inhibition activity: greater zone of inhibition activity than zn bacitracin
